# Experimental data taken from ChEMBL document CHEMBL1131876, “Revised structure of a homonojirimycin isomer from Aglaonema treubii: first example of a naturally occurring alpha-homoallonojirimycin” (Bioorg Med Chem Lett, 1999).
# Tests used:
# Alpha-galactosidase A = target: T1, Alpha-galactosidase A (Rattus norvegicus, UniProt D3ZJF9); test: Inhibitory activity against alpha-galactosidase from rat epididymis.
# T1 sequence (D3ZJF9 whole entry): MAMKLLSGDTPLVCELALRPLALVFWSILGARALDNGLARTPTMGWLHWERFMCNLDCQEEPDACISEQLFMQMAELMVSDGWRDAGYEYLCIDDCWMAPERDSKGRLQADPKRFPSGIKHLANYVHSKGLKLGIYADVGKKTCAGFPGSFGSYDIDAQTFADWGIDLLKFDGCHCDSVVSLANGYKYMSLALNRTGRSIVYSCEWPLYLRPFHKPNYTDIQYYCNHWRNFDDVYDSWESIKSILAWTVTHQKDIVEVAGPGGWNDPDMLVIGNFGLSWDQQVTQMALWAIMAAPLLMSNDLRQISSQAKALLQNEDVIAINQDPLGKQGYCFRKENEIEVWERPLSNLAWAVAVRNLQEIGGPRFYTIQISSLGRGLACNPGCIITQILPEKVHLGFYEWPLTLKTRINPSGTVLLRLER
# Beta-galactosidase = target: T2, Beta-galactosidase (Bos taurus, UniProt Q58D55); test: Inhibitory activity against beta-galactosidase from bovine liver
# T2 sequence (Q58D55 whole entry): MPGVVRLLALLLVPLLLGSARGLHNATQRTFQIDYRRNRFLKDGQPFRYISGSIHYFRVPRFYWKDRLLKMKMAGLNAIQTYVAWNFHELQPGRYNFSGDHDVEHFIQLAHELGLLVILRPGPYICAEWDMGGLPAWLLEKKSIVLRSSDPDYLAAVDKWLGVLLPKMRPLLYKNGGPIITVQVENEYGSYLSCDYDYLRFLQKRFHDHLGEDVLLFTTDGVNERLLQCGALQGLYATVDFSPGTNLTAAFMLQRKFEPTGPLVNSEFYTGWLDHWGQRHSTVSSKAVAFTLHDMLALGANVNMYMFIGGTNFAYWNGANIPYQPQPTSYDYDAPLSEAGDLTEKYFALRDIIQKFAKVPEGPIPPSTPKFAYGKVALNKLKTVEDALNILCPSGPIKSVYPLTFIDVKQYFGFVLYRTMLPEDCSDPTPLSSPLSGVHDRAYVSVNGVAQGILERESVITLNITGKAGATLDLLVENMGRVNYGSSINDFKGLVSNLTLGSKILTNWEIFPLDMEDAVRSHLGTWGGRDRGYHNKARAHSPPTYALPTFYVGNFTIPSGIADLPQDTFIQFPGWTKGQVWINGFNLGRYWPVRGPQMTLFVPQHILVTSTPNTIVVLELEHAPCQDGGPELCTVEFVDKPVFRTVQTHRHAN
SMILES,IC50 (Alpha-galactosidase A) [µM],IC50 (Beta-galactosidase) [µM]
OCC1NC(CO)[C@H](O)[C@@H](O)[C@@H]1O (stereo partly drawn),4.5,
"OC[C@H]1N[C@H](CO)[C@@H](O)[C@@H](O)C1O (single isomer, unassigned)",67,160
